Experiments:
[1] = system: normal human keratinocytes; assay: Transcriptome and proteome comparison of keratinocytes treated with Poly (I:C) or RA; type: cell-based; conditions: for identical gene transcripts inhibited by Poly (I:C) and RA: overlap of top ranked 100 downregulated transcripts; for identical gene transcripts induced by Poly (I:C) and RA: overlap of top ranked 100 upregulated transcripts; for overlap of inhibited proteins between Poly (I:C) and RA: top ranked 100 downregulated proteins; for overlap of induced proteins between Poly (I:C) and RA: top ranked 100 upregulated proteins
Excerpt: (§1) Microarray analysis. RNA isolated from keratinocytes with or without Poly (I:C) (GSE92646) and mouse wound tissues from wild type (C57BL/6NJ) and Tlr3^−/− with BMS493 and RA were submitted to the JHMI Deep Sequencing & Microarray core for Affymetrix® Human Exon 1.0ST and mouse microarray chip according to manufacturer's protocols. Raw gene expression signals in the form of Affymetrix CEL files were extracted and normalized with Partek® Genomics Suite™ software using the Robust Multichip Analysis (RMA) algorithm. Genes were ranked according to fold change of the intervention, and referred to as top or bottom induced if they are at the highest fold change (top) or lowest fold change (bottom). The significance of gene expression was measured by student's t-test analysis. These datasets generated during the current study are available in the NCBI GEO repository as listed above.
Proteomic analysis. For in vivo samples, wild-type and Tlr3^−/− unwounded and wounded skin where wound regions (center and edge area) were prepared for analysis. For in vitro samples, human primary scalp keratinocytes treated with 0.1 μM retinoic acid (RA) or 0.5 μg per ml Poly (I:C) and control were used. In vivo and in vitro samples were lysed in 5% sodium deoxycholate after washing in phosphate-buffered saline. Lysates were washed, reduced, alkylated and trypsinolyzed on filter as described by Wisniewski et al.^35 and Erde et al.^36. Tryptic peptides were separated on a nanoACQUITY UPLC analytical column (BEH130 C18, 1.7 μm, 75 μm×200 mm, Waters) over a 165 min linear acetonitrile gradient (3-40%) with 0.1% formic acid on a Waters nano-ACQUITY UPLC system, and analyzed on a coupled Thermo Scientific Orbitrap Fusion Tribrid mass spectrometer as described by Williamson et al.^37. Full scans were acquired at a resolution of 120,000, and precursors were selected for fragmentation by higher-energy collisional dissociation (normalized collision energy at 30%) for a maximum 3-second cycle. Tandem mass spectra were searched against a UniProt human reference proteome using MS Amanda algorithm described by Dorfer et al.^38 with a maximum precursor mass error tolerance of 10 ppm. Carbamidomethylation of cysteine and deamidation of asparagine and glutamine were treated as static and dynamic modifications, respectively. Resulting hits were validated at a maximum false discovery rate of 0.01 using a semi-supervised machine learning algorithm Percolator developed by Käll et al.^39. Protein abundance ratios were measured by comparing the MS1 peak volumes of peptide ions, whose identities were confirmed by MS2 sequencing as described above. The Label-free quantifications were performed using an aligned AMRT (Accurate Mass and Retention Time) cluster quantification algorithm Minora (Thermo Fisher Scientific, 2017). Pathway and gene ontology analysis were performed with Qiagen Ingenuity, Panther GO and DAVID databases, as described by Kramer et al.^40, Mi et al.^41, and Huang et al.^42, respectively.

[2] = system: Wound Induced Hair Neogenesis (WIHN); assay: Wound Induced Hair Neogenesis (WIHN), regenerated hair follicles counted by CSLM; type: in vivo, mouse
Protocol: Wound Induced Hair Neogenesis (WIHN). All experiments were followed with the present inventors' WIHN protocol^1,9. Briefly, hair was shaved and a 1.2 cm^2 full-thickness skin on the backs of 21-day old (telogen) male and female mice was removed by sterile scissors. A single treatment of RA (30 μl) (0.1 μg per mouse) (Millipore Sigma, R2625) and BMS493 (30 μl) (0.1 μg per mouse) (Cayman Chemical, #17418) was applied topically onto open wound on WD1 of Tlr3^−/− and WT mice, respectively. Poly (I:C) (50 μl) (5 μg per mouse) (Invivogen, tlrl-pic) was injected under the healed scab on WD3 of WT mice as described before^9,34. On WD20-24, numbers of regenerated hair follicles were visualized and quantified in the re-epithelialized skin by non-invasive confocal scanning laser microscopy (CSLM) (Caliber I.D., VIVASCOPE 1500) as published^1,9. As a vehicle (Control), ethanol (EtOH), dimethylsulfoxide (DMSO), or PBS was treated for RA, BMS493, and Poly (I:C), respectively.

[3] = system: keratinocytes of Tlr3−/− mice; assay: Western blot of stem cell markers in keratinocytes of Tlr3-/- mice; type: cell-based, mouse; conditions: keratinocytes or whole skin from Tlr3−/− mice
Protocol: Adult keratinocytes isolation and cultures. For human keratinocytes, 3-mm skin biopsies were taken from areas of the occipital scalp through above IRB protocols using enzyme digestion method as described in the literature^30,31. For mouse keratinocytes, tails of adult mice were used and followed by the same protocol of human keratinocytes. Briefly, the skin fragments were incubated in 0.4% dispase II solution overnight at 4° C., allowing separation of epidermis from dermis. Then epidermis was incubated with 0.25% trypsin-EDTA (Lonza, Walkersville, MD) to isolate keratinocytes for 5 min at 37° C. Adult keratinocytes were maintained in KGM including defined growth factors (KGM-GOLD Bullet kit, #192060) (Lonza) and supplemented with 10 μM of ROCK inhibitor (Y-27632) (Cayman Chemical, #10005583) until use^32. For all in vitro experiments, primary keratinocytes were passaged at least once to eliminate contaminating other cells isolated from epidermis and used at passage 2-4 for human and passage 1-2 for mouse keratinocytes.
BMS493 treatment. BMS493 pan-RARs antagonist (1 μM) was pre-treated into keratinocytes for an hour and cells were incubated with RA (0.1 μM and 0.5 μM for human and mouse keratinocytes, respectively) or Poly (I:C) (0.1 μg per ml for both human and mouse keratinocytes) for 48 hrs. At the end of the experiment, cells were harvested for RNA and protein extraction to do further analysis including qRT-PCR and western blot.
Western blot analysis. Human and mouse keratinocytes were disrupted in M-PER lysis buffer (Thermo Fisher Scientific, #78501) containing protease inhibitors (Thermo Fisher Scientific, #87786) using ultrasonic homogenizer (20% power with 5 times every 2 seconds) to extract proteins. Then, protein concentrations were determined by BCA method (Thermo Fisher Scientific, #23225). Western blot procedures were followed by the protocol of NuPAGE system (Thermo Fisher Scientific). […] The signal intensity of protein was quantified using Image Lab software (Bio-Rad). […]

[4] = system: wound tissues of Tlr3−/− mice; assay: Microarray gene ontology analysis of wound tissue; type: in vivo, mouse; conditions: Tlr3−/− mice treated with RA
Excerpt: as §1

cells = assay: Entry of dsRNA (PIC) into cells, stain (Example 2); type: cell-based; conditions: after pre-treatment with RA

| Molecule | identical gene transcripts inhibited by Poly (I:C) and RA [1] [%] | identical gene transcripts induced by Poly (I:C) and RA [1] [%] | overlap of inhibited proteins between Poly (I:C) and RA [1] [%] | overlap of induced proteins between Poly (I:C) and RA [1] [%] | hair follicle regeneration (WIHN) ([2]; Tlr3−/− mice, topical 0.1 μg per mouse on WD1) | WIHN ([2]; WT mice, supraphysiologic doses of RA) | levels of Krt19, Krt15 and activated β-catenin protein [3] | gene ontology categories in microarray analysis [4] | hair follicle regeneration (WIHN) ([2]; MDA5−/− mice, similar to WT) | new hair follicle formation (WIHN) ([2]; WT mice, single injection 5 μg per mouse on WD3) | accumulation of PIC in cells (cells) |
| --- | --- | --- | --- | --- | --- | --- | --- | --- | --- | --- | --- |
| CC1=C(/C=C/C(C)=C/C=C/C(C)=C/C(=O)O)C(C)(C)CCC1 [RA, all-trans-retinoic acid] | 18 | 13 | 36 | 61 | modestly increased | do not modify | increased | substantial enrichment of gene ontology categories pertaining to development and morphogenesis | – | – | – |
| Polyinosinic-polycytidylic acid [Poly (I:C)] | 18 | 13 | 36 | 61 | – | – | – | – | induces hair follicle regeneration | stimulates new hair follicle formation | much more effectively |

— patent US11969402B2, “Compositions and methods for skin rejuvenation” (THE JOHNS HOPKINS UNIVERSITY, priority 2019, dated 2024)
